In ChEMBL document CHEMBL1201862, “PubChem BioAssay data set” (2004):
Activity calls are given as the source filed them.

Legend:
[1] = molecular target: Female germline-specific tumor suppressor gld-1 (Caenorhabditis elegans, UniProt Q17339); experiment: inhibitors of GLD-1 binding to TGE RNA, dose response, biochemical, fluorescence polarization, C. elegans (AID 2802);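 note: fluorescence polarization of labeled TGE RNA bound by purified gld-1 protein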
Protein Rev = Protein Rev (Human immunodeficiency virus type 1 group M subtype B (isolate HXB2)(HIV-1), UniProt P04618); experiment: inhibitors of Rev binding to RRE RNA, dose response, biochemical, fluorescence polarization, HIV-1 (AID 434976); design: species or system Human immunodeficiency virus 1
Kallikrein-7 = Kallikrein-7 (Homo sapiens, UniProt P49862); experiment: Fluorescence Intensity-based biochemical primary high throughput dose response assay to identify activators of kallikrein-7 (K7) zymogen.
[2] = molecular target: Delta-type opioid receptor (Homo sapiens, UniProt P41143); experiment: SAR Analysis of Antagonists of the DOR Receptor using an Image-Based Assay - Set 3. [Related pubchem assays (depositor defined):AID1777, AID1785]; format: functional;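 note: U2OS cells expressing DOR1 and beta-arrestin GFP stimulated with 100 nM SNC80; imaging of GFP-tagged beta-arrestin moving into spots after receptor activation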
Mu-type opioid receptor = Mu-type opioid receptor (Homo sapiens, UniProt P35372); experiment: SAR Analysis of Antagonists of the MOR Receptor using an Image-Based Assay - Set 3. [Related pubchem assays (depositor defined):AID1777, AID1785, AID1786, AID1966, AID2133, AID2136, AID2284, AID2285, AID2420]; format: functional
[3] = molecular target: T1, Kappa-type opioid receptor (Homo sapiens, UniProt P41145); experiment: SAR analysis of Antagonists of the Kappa Opioid Receptor (KOR) using an Image-Based Assay - Set 3. [Related pubchem assays (depositor defined):AID1777, AID1785]; format: functional
[4] = molecular target: T1, Kappa-type opioid receptor; experiment: SAR analysis of small molecule antagonists of the kappa opioid receptor via a luminescent beta-arrestin assay - Set 3. [Related pubchem assays (depositor defined):AID1777, AID1778, AID1785, AID1786, AID1966, AID2133, AID2136, AID2285, AID2495]; format: functional
[5] = molecular target: Melanin-concentrating hormone receptor 1 (Homo sapiens, UniProt Q99705); experiment: Late-stage fluorescence-based counterscreen for antagonists of the G-protein coupled receptor 7 (GPR7): cell-based dose response assay to identify antagonists of the melanin-concentrating hormone receptor 1 (MCHR1). [Related pubchem assays (depositor defined):AID1861, AID1880, AID1952, AID2148, AID2251, AID2257, AID485339]; format: functional;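 note: stimulated with 30 nM MCH peptide agonist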
[6] = molecular target: T2, Ubiquitin-conjugating enzyme E2 N (Homo sapiens, UniProt P61088); format: functional
T2 sequence (P61088 whole entry): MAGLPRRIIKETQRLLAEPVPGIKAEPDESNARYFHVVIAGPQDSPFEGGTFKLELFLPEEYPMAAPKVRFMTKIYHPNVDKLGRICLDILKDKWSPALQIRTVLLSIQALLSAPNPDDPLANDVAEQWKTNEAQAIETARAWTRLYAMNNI

Beta-galactosidase = Beta-galactosidase (Escherichia coli, UniProt Q8VNN2); experiment: Dose response counterscreen for EBI2 assay utilizing the enzyme, b-galactosidase.; format: functional
Bcl-2-related protein A1 = Bcl-2-related protein A1 (Mus musculus, UniProt Q07440); format: functional;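 note: confirmatory dose–response counterscreen on Bfl-1, used to check hits from a UBC13 polyubiquitin inhibitor campaign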
[7] = molecular target: T2, Ubiquitin-conjugating enzyme E2 N; format: functional; remark: listed apart in the source
[8] = molecular target: T3, E3 ubiquitin-protein ligase XIAP (Homo sapiens, UniProt P98170); experiment: Counter Screen using XIAP-Bir3 for Chemical Antagonists of Bir1/2 domains of IAP-family anti-apoptotic proteins. [Related pubchem assays (depositor defined):AID1018, AID1449, AID1514, AID1638, AID1749, AID1750, AID488957, AID488963]
[9] = molecular target: T3, E3 ubiquitin-protein ligase XIAP; experiment: XIAP antagonists, biochemical, IAP family, fluorescence polarization (AID 1018); format: functional
[10] = NIH-3T3 fibroblast cytotoxicity, dose response, cytotoxicity control, cell-based, fluorescence, Alamar Blue, secondary assay (AID 2327); format: functional;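 note: NIH-3T3 mouse fibroblasts cultured with fluconazole at 8 µg/mL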
[11] = molecular target: T4, Serine/threonine-protein phosphatase (Candida dubliniensis (strain CD36 / CBS 7987 / NCPF 3949 / NRRLY-17841) (Yeast), UniProt B9W6M3); experiment: calcineurin pathway inhibitors in yeast reporter, dose response, S. cerevisiae, CDRE-lacZ, luminescence, secondary (AID 2388); format: functional, cell-based;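 note: yeast reporter cells carrying a calcineurin-responsive lacZ construct stimulated with calcium chloride; luminescent beta-galactosidase reporter signal in whole cells rather than isolated phosphatase activity; potency for inhibition where a drop in reporter signal means calcineurin blockade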
T4 sequence (B9W6M3 whole entry): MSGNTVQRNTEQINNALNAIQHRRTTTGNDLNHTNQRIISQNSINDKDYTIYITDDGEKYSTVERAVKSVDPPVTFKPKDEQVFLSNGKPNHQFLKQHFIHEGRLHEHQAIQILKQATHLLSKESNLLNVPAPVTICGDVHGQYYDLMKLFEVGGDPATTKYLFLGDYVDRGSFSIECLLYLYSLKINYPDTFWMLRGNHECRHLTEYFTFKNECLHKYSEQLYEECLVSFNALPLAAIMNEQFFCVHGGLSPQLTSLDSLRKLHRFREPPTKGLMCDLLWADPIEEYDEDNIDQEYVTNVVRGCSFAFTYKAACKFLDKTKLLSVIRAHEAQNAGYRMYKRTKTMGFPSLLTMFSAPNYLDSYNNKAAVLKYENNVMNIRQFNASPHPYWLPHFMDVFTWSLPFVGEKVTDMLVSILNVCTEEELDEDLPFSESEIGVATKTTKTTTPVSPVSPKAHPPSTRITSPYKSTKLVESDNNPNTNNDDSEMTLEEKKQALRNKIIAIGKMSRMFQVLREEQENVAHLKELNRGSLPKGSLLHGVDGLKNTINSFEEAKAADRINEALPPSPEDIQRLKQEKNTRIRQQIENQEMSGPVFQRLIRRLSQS

[12] = inhibitors of Bluetongue virus cytopathic effect, confirmation, arbovirus, BSR cells (AID 1250); format: functional;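 note: protection from viral cytopathic effect measured as cell viability by ATP luminescence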
[13] = C. albicans growth with fluconazole, confirmation, fluorescence, retest (AID 2467); format: functional, cell-based
[14] = molecular target: ATP-dependent molecular chaperone HSP82 (Candida albicans (strain WO-1) (Yeast), UniProt C4YTQ8); experiment: loss of DOC-induced GRE-beta-galactosidase reporter signal, dose response, Hsp90 inhibitor project, S. cerevisiae, luminescence (AID 2400); format: functional, cell-based;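 note: beta-galactosidase luminescence from glucocorticoid response element reporter as proxy for Hsp90 function; inhibitor potency where signal loss means Hsp90 inhibition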
Chain of ATP-dependent molecular chaperone HSP82 (C4YTQ8 whole entry): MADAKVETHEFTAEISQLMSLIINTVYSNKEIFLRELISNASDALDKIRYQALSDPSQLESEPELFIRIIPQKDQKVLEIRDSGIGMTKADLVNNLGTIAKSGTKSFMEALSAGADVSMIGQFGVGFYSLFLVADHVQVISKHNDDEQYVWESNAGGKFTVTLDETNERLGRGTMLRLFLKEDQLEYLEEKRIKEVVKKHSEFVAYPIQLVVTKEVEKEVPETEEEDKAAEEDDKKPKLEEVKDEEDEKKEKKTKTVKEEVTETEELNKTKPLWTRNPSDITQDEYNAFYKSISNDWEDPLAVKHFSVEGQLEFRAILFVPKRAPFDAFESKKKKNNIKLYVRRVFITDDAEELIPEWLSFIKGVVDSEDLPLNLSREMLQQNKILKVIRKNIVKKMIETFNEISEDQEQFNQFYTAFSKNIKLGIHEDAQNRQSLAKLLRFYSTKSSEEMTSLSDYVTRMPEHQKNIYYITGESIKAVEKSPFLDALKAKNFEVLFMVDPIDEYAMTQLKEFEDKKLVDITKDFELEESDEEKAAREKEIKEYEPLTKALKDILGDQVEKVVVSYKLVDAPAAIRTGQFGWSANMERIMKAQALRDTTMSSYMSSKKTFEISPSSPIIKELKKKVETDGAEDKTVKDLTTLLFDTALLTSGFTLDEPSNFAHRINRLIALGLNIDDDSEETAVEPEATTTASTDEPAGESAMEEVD

T1 sequence (P41145 whole entry): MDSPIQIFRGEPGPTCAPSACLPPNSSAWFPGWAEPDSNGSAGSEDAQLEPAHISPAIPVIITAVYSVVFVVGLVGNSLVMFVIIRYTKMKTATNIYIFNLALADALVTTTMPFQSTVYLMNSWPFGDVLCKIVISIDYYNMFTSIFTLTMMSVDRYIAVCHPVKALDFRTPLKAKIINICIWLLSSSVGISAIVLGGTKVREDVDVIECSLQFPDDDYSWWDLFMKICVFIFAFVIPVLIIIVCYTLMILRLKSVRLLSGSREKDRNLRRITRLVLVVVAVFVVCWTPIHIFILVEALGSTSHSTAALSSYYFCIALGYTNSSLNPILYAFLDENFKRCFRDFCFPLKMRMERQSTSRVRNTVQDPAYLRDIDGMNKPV
Chain of Protein Rev (P04618 whole entry): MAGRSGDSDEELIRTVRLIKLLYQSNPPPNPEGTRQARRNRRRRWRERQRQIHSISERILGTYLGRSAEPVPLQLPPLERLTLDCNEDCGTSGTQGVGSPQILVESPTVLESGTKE
Chain of Mu-type opioid receptor (P35372 whole entry): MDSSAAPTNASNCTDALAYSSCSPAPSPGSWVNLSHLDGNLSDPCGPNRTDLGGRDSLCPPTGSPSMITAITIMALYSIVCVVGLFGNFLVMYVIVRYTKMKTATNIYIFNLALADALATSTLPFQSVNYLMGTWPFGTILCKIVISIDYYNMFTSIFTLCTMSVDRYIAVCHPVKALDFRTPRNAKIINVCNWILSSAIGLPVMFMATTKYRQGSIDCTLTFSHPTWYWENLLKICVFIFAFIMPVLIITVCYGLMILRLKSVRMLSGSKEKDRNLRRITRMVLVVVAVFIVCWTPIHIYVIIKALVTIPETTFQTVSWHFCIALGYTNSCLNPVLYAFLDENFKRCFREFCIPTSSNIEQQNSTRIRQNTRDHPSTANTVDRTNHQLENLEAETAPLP
Chain of Delta-type opioid receptor (P41143 whole entry): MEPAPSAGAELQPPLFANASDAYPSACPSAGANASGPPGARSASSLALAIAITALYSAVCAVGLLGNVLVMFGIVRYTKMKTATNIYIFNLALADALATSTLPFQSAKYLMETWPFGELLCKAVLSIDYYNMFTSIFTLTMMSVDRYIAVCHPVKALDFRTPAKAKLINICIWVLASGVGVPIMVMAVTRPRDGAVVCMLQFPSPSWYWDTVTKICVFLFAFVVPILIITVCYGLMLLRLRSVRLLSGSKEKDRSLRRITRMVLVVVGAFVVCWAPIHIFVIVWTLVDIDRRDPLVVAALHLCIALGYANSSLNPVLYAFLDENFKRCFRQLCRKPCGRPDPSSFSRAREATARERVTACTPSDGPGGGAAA
Chain of Female germline-specific tumor suppressor gld-1 (Q17339 whole entry): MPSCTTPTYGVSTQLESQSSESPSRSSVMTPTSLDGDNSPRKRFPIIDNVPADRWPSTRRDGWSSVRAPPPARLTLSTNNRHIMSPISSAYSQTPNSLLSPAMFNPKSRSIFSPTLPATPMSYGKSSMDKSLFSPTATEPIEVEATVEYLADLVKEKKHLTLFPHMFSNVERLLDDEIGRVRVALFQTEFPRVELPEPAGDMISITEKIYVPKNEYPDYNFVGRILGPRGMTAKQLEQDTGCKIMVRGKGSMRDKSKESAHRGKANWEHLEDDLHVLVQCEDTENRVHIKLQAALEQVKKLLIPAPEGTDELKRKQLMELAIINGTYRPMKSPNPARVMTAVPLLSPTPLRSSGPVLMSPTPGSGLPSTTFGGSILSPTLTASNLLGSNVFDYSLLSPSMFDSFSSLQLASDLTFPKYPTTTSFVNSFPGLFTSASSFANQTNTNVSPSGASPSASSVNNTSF
T3 sequence (P98170 whole entry): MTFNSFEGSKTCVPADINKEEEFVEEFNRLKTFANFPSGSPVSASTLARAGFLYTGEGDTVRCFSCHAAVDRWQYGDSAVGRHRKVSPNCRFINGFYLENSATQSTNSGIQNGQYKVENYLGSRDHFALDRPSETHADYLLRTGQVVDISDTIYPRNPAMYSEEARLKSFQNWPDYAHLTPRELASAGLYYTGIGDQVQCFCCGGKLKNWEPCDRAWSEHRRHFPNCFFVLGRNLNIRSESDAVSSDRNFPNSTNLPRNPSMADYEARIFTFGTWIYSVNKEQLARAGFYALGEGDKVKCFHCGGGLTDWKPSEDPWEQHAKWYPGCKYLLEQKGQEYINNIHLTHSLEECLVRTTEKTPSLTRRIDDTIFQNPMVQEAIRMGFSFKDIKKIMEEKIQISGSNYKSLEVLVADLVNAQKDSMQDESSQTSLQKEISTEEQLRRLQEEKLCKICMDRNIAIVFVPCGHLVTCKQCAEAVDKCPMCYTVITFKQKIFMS
Chain of Bcl-2-related protein A1 (Q07440 whole entry): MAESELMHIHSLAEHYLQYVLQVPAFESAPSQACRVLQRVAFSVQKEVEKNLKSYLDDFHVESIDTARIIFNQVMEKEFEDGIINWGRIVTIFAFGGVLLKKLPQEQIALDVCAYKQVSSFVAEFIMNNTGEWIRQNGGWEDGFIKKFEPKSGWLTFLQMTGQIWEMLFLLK
Chain of Melanin-concentrating hormone receptor 1 (Q99705 whole entry): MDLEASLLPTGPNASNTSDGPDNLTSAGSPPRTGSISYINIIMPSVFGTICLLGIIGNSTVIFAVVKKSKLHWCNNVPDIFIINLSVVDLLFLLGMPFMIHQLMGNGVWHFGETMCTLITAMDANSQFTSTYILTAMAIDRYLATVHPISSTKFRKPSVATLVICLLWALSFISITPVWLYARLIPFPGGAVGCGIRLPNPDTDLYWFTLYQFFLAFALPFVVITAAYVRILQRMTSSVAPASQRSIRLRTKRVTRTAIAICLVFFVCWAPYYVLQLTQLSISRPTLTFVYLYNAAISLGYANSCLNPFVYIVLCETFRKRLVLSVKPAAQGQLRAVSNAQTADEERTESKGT
Chain of Beta-galactosidase (Q8VNN2 whole entry): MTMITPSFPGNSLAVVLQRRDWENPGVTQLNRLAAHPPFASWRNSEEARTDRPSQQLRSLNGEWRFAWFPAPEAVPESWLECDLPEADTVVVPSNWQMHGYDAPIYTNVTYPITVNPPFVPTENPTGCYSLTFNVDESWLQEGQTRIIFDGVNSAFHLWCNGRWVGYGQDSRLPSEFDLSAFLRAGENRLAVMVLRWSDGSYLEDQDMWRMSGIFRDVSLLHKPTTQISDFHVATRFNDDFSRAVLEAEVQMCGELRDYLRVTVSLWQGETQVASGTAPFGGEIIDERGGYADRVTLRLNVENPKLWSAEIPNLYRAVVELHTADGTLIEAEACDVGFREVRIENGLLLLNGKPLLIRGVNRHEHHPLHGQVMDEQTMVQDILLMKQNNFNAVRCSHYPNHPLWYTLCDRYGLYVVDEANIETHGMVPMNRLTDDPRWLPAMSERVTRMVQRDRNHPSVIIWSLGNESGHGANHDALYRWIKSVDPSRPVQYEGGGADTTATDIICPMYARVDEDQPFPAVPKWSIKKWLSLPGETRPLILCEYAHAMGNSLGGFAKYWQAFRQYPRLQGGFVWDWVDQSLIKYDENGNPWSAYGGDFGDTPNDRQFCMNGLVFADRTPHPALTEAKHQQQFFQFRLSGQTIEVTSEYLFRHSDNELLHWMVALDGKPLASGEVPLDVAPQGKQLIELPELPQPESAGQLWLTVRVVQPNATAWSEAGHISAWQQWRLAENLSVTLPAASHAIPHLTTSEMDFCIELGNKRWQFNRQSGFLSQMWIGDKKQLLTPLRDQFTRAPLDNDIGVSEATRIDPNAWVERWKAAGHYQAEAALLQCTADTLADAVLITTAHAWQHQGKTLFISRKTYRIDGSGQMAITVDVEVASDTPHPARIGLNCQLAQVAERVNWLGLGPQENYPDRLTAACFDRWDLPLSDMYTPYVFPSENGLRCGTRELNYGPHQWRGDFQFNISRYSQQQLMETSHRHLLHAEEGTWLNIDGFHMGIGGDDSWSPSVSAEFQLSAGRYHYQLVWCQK
Chain of Kallikrein-7 (P49862 whole entry): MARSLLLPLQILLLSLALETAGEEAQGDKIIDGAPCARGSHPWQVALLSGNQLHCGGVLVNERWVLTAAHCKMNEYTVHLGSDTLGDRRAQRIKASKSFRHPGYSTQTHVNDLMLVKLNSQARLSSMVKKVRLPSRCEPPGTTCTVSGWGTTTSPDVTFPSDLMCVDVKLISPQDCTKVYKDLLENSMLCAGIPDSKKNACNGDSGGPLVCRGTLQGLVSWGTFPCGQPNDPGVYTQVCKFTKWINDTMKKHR

## CC(=O)N1CCN(C2=Nc3cccc4cccc2c34)CC1
[1]
  IC50: 7.57 µM (active)
Protein Rev
  IC50: 15.8 µM (not active)
Kallikrein-7
  EC50: 36.7 µM (inactive)

## COc1ccc(S(=O)(=O)NCc2ccc(C(=O)NCCN3Cc4ccccc4C3)cc2)cc1
[2]
  IC50: > 32 µM (inactive)
Mu-type opioid receptor
  IC50: > 32 µM (inactive)
[3]
  IC50: > 32 µM (inactive)
[4]
  IC50: > 20 µM (inactive)

## C=Cc1cnn(-c2ccc(C(C)C)cc2)c(=O)c1Oc1ccc(OC)cc1
[5]
  IC50: 3.9 µM (active)

## Cc1ccc(N(C(=O)c2snc(C(N)=O)c2N)C(C(=O)NC2CCCC2)c2ccc(C)o2)cc1 (stereo not given)
[6]
  IC50: 19.9 µM (active)
Beta-galactosidase
  IC50: > 80 µM (inactive)
Bcl-2-related protein A1
  IC50: > 20 µM (inactive)
[7]
  IC50: 10.4 µM (active)

## COc1ccc(CCC(=O)OCC(=O)Nc2ccc(C)c(S(=O)(=O)N(C)C)c2)cc1
[8]
  IC50: > 100 µM (inactive)
[9]
  IC50: > 100 µM (not active)

## Cc1oc2ccc(OC(=O)N(C)C)cc2c1C(=O)OC(C)C
[10]
  EC50: 137 µM (inconclusive)
[11]
  EC50: > 180 µM (inactive)
[12]
  IC50: 35.1 µM (active)
[13]
  EC50: 1.34 µM (active)
[14]
  EC50: > 160 µM (inactive)

## CCOC(=O)c1cc2c(ccn2C)n1CC(=O)N1CCN(c2cccc(C(F)(F)F)c2)CC1
[1]
  IC50: > 6.63 µM (active)
Protein Rev
  IC50: > 75.4 µM (not active)

## Cc1ccc(CN(CCNC(=O)c2ccc(CNS(=O)(=O)c3cccc(C)c3)cc2)C(C)C)cc1
[2]
  IC50: > 32 µM (inactive)
Mu-type opioid receptor
  IC50: > 32 µM (inactive)
[3]
  IC50: 0.675 µM (active)
[4]
  IC50: 1.83 µM (active)
